This is an account of results in patent US20080031968A1, “Methods for increasing cellular energy expenditure” (priority 2005, published 2008).

For data set [1], the system named is HSMM. Put plainly: Oxygen consumption and extracellular acidification rate in HSMM. The settings on record: for cellular oxygen consumption: 48 or 72 hours; for extracellular acidification rate: after 72 hours of treatment.
The test system of data set [2] is HSMM. Put plainly: D2 activity in human skeletal muscle myoblasts. In kind it is cell-based. The note with it: 16 h incubation. The procedure: HSMM were obtained from Cambrex (Walkersville, Md.) and were cultured according to the suppliers instructions. D2 activity measurements were performed after a 16 h incubation with the indicated compounds. For the cAMP measurements, cells were preincubated 12 h in Opti-MEM (Life Technologies, Cergy Pontoise, France), supplemented with 1 mM IBMX. Then medium was changed and cells were incubated for another 1 h in Opti-MEM with 1 mM IBMX, after which the medium was replaced for Opti-MEM with 1 mM IBMX and the indicated compounds. After 30 minutes the cells were lysed for cAMP analysis.

The subject of data set [3] is BAT cells. As to the kind of experiment: Isolated mouse BAT cells, D2 mRNA, D2 activity and cAMP. In kind it is cell-based. The procedure: An OGTT was performed in animals that were fasted overnight. Glucose was administered by gavage at a dose of 2 g/kg. An IPITT was done in 4 h fasted animals. Insulin was injected at a dose of 0.75 U/kg. Glucose quantification was done with the Maxi Kit Glucometer 4 (Bayer Diagnostic, Puteaux, France) or Glucose RTU (bioMérieux Inc., Marcy l'Etoile, France). Plasma insulin concentrations were measured using ELISA (Cristal Chem Inc., Downers Grove, Ill.). Nonesterified fatty acids, triglycerides, ketone bodies, BA and total cholesterol were determined by enzymatic assays (Roche, Mannheim, Germany). cAMP was measured using the cAMP-Screen system (Applied Biosystems, Bedford, Mass.).

The target of data set [4] is T1, TGR5 (Homo sapiens, UniProt Q8TDU6).
T1 construct: expressed in transfected cells
T1 sequence (Q8TDU6 1-330): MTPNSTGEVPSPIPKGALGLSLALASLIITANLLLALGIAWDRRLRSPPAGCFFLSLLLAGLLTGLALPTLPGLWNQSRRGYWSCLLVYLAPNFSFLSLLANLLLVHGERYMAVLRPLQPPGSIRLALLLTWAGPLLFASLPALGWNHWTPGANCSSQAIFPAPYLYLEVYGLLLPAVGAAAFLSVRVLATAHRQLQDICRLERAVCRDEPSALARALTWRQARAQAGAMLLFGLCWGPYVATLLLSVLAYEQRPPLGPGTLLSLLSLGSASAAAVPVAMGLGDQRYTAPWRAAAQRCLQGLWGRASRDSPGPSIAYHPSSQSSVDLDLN
As to the kind of experiment: cAMP response element (CRE)-luciferase reporter assay with TGR5. The class given is cell-based. The settings on record: cells co-transfected with TGR5 expression plasmid and CRE-driven luciferase reporter. From the text: Since a synthetic FXRα agonist was unable to phenocopy the effects of BAs on energy expenditure, we focused our attention on FXRα-independent signaling events stimulated by BAs. […] We used a cAMP response element (CRE)-luciferase reporter assay to confirm that TGR5 is a BA receptor.
We used quantitative RT-PCR to measure the expression of D2 and TGR5 mRNAs in selected mouse tissues.

In data set [5] the test system is HSMM. Put plainly: cAMP levels in human skeletal muscle myoblasts. The class given is cell-based. The settings on record: 1 mM IBMX, 30 minutes.
Description: HSMM were obtained from Cambrex (Walkersville, Md.) and were cultured according to the suppliers instructions. […] For the cAMP measurements, cells were preincubated 12 h in Opti-MEM (Life Technologies, Cergy Pontoise, France), supplemented with 1 mM IBMX. Then medium was changed and cells were incubated for another 1 h in Opti-MEM with 1 mM IBMX, after which the medium was replaced for Opti-MEM with 1 mM IBMX and the indicated compounds. After 30 minutes the cells were lysed for cAMP analysis.
Data set [6] addresses T1, TGR5. Put plainly: CHO cells transiently expressing TGR5 and pCRE-Luc. In kind it is cell-based. The note with it: different concentrations, almost as much cAMP accumulation as with 10 μM forskolin. From the text: These two steroids constitute about 2 percent by weight of gum guggul.
Data set [7] concerns mouse SREBP-1c promoter. As to the kind of experiment: SREBP-1c promoter luciferase reporter assay in McA-RH7777 cells. The class given is cell-based. The note with it: McA-RH7777 rat hepatoma cells, LXRα transfection and/or LXR and RXR agonists.
Description: The LXR response elements in pSREBP-1c324-Luc were mutated for promoter analysis using the Quick Change Site-Directed Mutagenesis Kit (Stratagene, La Jolla, Calif., USA).
The rat hepatoma cell line McA-RH7777 was obtained from ATCC (Manassas, Va., USA). […] Transfections were performed in 96-well plates using Lipofectamine 2000 (Invitrogen, Cergy Pontoise, France). Each well contained 64 ng luciferase reporter and 4 ng of β-galactosidase expression plasmid. We transfected 16 ng RXRα, 16 ng LXRα, 16 ng LRH-1, 32 ng SHP expression plasmids, or the corresponding empty expression vectors. After 6 hours of incubation with the DNA-lipofectamine complexes, the transfection medium was exchanged for medium with or without the indicated ligands. Ligands for LXR and RXR were dissolved in ethanol or DMSO and added to the cells in DMEM supplemented with 10% lipoprotein-deficient serum. To suppress SREBP-1c activation by processing, leading to feed-forward induction of SREBP-1c expression, the medium used for the SREBP-1c promoter study was also supplemented with 10 μg/ml cholesterol and 1 μg/ml 25-hydroxycholesterol. Luciferase measurements were normalized to β-galactosidase activity.
Data set [8] deals with mouse primary hepatocytes. Put plainly: Endogenous SREBP-1c and target gene expression in mouse primary hepatocytes. The class given is cell-based. The procedure:
Hepatocytes were isolated from wild-type male mice 8-10 weeks old. Animals were anesthetized with CO2 and livers were perfused with 40 ml Liver Perfusion Medium (Invitrogen) followed by 30 ml Liver Digestion Medium (Invitrogen), both at a flow rate of 5 ml/min. Isolated hepatocytes were resuspended in DMEM supplemented with 20% (v/v) FCS, 100 units/ml penicillin, and 100 units/ml streptomycin, and placed in plates coated with collagen IV at a density of 1×10^5 cells/cm^2. After a 4-hour incubation at 37° C. in an atmosphere of 5% CO2, the medium was changed to DMEM supplemented with 10% (v/v) FCS, 100 units/ml penicillin, 100 units/ml streptomycin, 0.5 μM dexamethasone (Sigma-Aldrich), and 0.4 μM insulin (Sigma-Aldrich). After 16 hours, the medium was changed into medium supplemented with CDCA and ligands for LXR and RXR. After an additional 18-hour incubation, cells were harvested for RNA isolation.
Total RNA was extracted from frozen tissue samples or cells using the RNeasy kit (QIAGEN, Courtaboeuf, France). cDNA was synthesized from total RNA with the SuperScript First-Strand Synthesis System (Invitrogen) and random hexamer primers. The real-time PCR measurement of individual cDNAs was performed using SYBR green dye to measure duplex DNA formation with the LightCycler System (Roche Diagnostics, Meylan, France). The sequences of the primer sets used are available online at http://www-igbmc.ustrasbg.fr/Departments/Dep_V/Dep_VA/Publi/Paper.html.

The subject of data set [9] is humans. The settings on record: cited from earlier work.
Data set [10] relates to BAT of C57BL/6J mice. Put plainly: BAT gene expression by microarray and Q-RT-PCR. The class given is in vivo, mouse. The note with it: high fat diet mixed with CA or CDCA for 9 days.
Description: For microarray analysis, RNA was isolated from BAT using the RNeasy mini kit (QIAGEN, Courtaboeuf, France). Equal amounts of RNA from mice in each group were pooled (n=3 or 4 mice) and used for cDNA synthesis. After second-strand cDNA synthesis (Life Technologies, Cergy Pontoise, France), in vitro transcription was performed with biotinylated UTP and CTP (Enzo Diagnostics, Farmingdale, N.Y.). Fragmented cRNA samples were hybridized to the Affymetrix MOE430A microarray. The raw data was analyzed using the Microarray Suite Software version 5.0 (MAS5.0, Affymetrix, Santa Clara, Calif.).
The subject of data set [11] is humans. The settings on record: treatment of cholesterol gallstones; cited from earlier work.
Data set [12] deals with C57BL/6J mice. As to the kind of experiment: LXR agonist-induced lipogenesis in C57BL/6J mice with or without CA. The note with it: C57BL/6J mice, chow diet, gavage 30 mg/kg. The class given is in vivo, mouse. Here is the method: Male C57BL/6J, KK-Ay, and ob/ob (C57BL/6J background) mice, 6-10 weeks of age, were obtained from Elevage Janvier (Le Genest St. Isle, France), CLEA Japan Inc. (Tokyo, Japan), and The Jackson Laboratory (Bar Harbor, Me., USA), respectively. All mice were maintained in a temperature-controlled (23° C.) facility with a 12-hour light/dark cycle and were given free access to food and water. The study protocols were approved by the institutional review boards. The body weight and food intake were measured every second day. The control and high-fat diet was obtained from UAR (Villemoisson sur Orge, France). […] The mice were fasted 4 hours before harvesting blood for subsequent lipid measurements, and tissues for RNA isolation, lipid measurements, and histology.
Mice were gavaged with the LXR agonist T0901317 or vehicle, and the different diets were continued for one more day, after which the mice were sacrificed.

With `N[C@@H](Cc1cc(I)c(Oc2ccc(O)c(I)c2)c(I)c1)C(=O)O` [T3, 3,5,3′-triiodothyronine], in [1], the cellular oxygen consumption result is on record as “elevated” and the extracellular acidification rate entry is “increase”.

`C[C@H](CCC(=O)NCCS(=O)(=O)O)[C@H]1CC[C@H]2[C@@H]3[C@H](O)C[C@@H]4C[C@H](O)CC[C@]4(C)[C@H]3C[C@H](O)[C@]12C` [TCA, taurocholic acid]: in data set [2], the D2 activity entry was “significant and dose dependent induction”. The cAMP levels result in data set [3] (BAT cells) is “most effective”; in data set [5], “increased cAMP levels in a dose-dependant fashion”. For the same compound, in [3] (BAT cells from mice fed control or high fat diet), the “D2 mRNA and activity” value is on record as “dose dependently increased”. For the same compound, the cellular oxygen consumption result in [1] is on record as “elevated”. Moreover, the extracellular acidification rate result in data set [1] is “increase”. Also, the luciferase expression entry in data set [4] is on record as “increased luciferase expression in a dose-dependent manner”. In addition, in [6], the reporter activity entry is given as “dramatically increased”.

Consider `C[C@H](CCC(=O)O)[C@H]1CC[C@H]2[C@@H]3[C@H](O)C[C@@H]4C[C@H](O)CC[C@]4(C)[C@H]3CC[C@]12C` [CDCA, chenodeoxycholic acid], for which the “increase of SREBP-1c promoter activity” value in data set [7] was “attenuated”. Moreover, the “expression of lipogenic target genes of SREBP-1c (SCD-1, AceCS, ME)” value in data set [8] (RXR and LXR ligands plus CDCA) is “decreased likewise”. The SHP expression result in [8] (addition of CDCA) is “increased”. Further, in data set [8] (induced by RXR and LXR ligands, increasing amounts of CDCA, 18-hour incubation), the “endogenous SREBP-1c expression” value was “decreased dose-dependently”. Further, in data set [9], the hepatotoxicity entry is on record as “significant hepatotoxicity”. Besides, in [9] (decrease in LDL-R activity), the LDL cholesterol result is listed as “raise LDL cholesterol”. Besides, the “genes involved in control of energy expenditure incl. D2 in BAT (microarray)” value in data set [10] is recorded as “upregulated”. The cAMP levels result in [5] was “increased cAMP levels in a dose-dependant fashion”. The hypertriglyceridemia result in [11] is reported as “reduce hypertriglyceridemia”.

On to `C[C@H](CCC(=O)NCCS(=O)(=O)O)[C@H]1CC[C@H]2[C@@H]3[C@H](O)C[C@@H]4C[C@H](O)CC[C@]4(C)[C@H]3CC[C@]12C` [TCDCA, tauroCDCA], for which the cAMP levels entry in data set [5] was “did not increase”.

Regarding `O=S(=O)(c1ccccc1)N(CC(F)(F)F)c1ccc(C(O)(C(F)(F)F)C(F)(F)F)cc1` [T0901317], the “liver weight and serum TGs” value in data set [12] is “induction”.
